Assay results from patent US20160166700A1, “METHOD FOR AMELIORATING LIVER FIBROSIS BY USING NANOPARTICLE CONTAINING TYROSINE KINASE INHIBITOR” (National Tsing Hua University, priority 2014, published 2016).

Legend:
[1] = Pharmacokinetics of injected C6-loaded nanoparticle composition (C6 in blood); type: in vivo, C3H mice; conditions: 0.5 to 1 hour after injection; 0.1 mg/kg tail intravenous injection; FIG. 6
Protocol: C6 was injected to C3H mice with or without the nanoparticle encapsulation at a dosage of 0.1 mg/kg via tail intravenous injection. 40 μL of blood from the tail artery of the mice were collected and mixed with ethylenediaminetetraacetic acid (EDTA) at different period of time. Fluorescence intensity was measured under an excitation wavelength of 485 nm and an emission wavelength of 538 nm. Standard curves of the C6 or C6-loaded PLGA nanoparticle composition in blood were used to calculate the content of C6 in mice.

[2] = test system: hepatic stellate cell (HSC); type: cell-based; conditions: HSCs; MTT after 48 or 72 hours; FIG. 5B
Protocol: The HSC was purchased from ScienCell Research Laboratories (#5300, San Diego, Calif., USA) and the HUVEC was obtained from Bioresource Collection and Research Center, Food Industry Research and Development Institute (BCRC number: H-UV001, Hsinchu, Taiwan). Firstly, HUVECs and HSCs were planted in 96-well plates at a density of 2,000 cells/well and were left overnight for adhesion. Then, different forms of sorafenib or drug carriers were added. After 48 or 72 hours, 3-(4, 5-cimethylthiazol-2-yl)-2, 5-diphenyl tetrazolium bromide (MTT), which dissolved in PBS, was added to each well and the cells were further incubated at 37° C. for 3 hours. Finally, to each well, 50 μL of DMSO were added and a spectrophotometer was used to analyze the result at a wavelength of 570 nm. […] In addition, cells without any treatment served as Vehicle Group, while cells treated with free sorafenib served as Positive Control Group. […] Meanwhile, according to the results of cell viability of the cells treated with the PEG-PLGA particle alone (Negative Control Group 1) and PEG-PLGA/PLGA nanoparticle composition alone (Negative Control Group 2), it is confirmed that the PEG-PLGA and PEG-PLGA/PLGA co-polymer are non-cytotoxic and will not result in death of the target cells.

[3] = test system: α-smooth muscle actin (α-SMA); assay: α-SMA expression (western blotting) as indicator for HSC activation in treated mice; type: in vivo; conditions: FIG. 9A
Excerpt: The expression of α-smooth muscle actin (α-SMA) is an indicator for HSC activation.

collagen I = assay: Extracellular matrix (collagen I) content in fibrotic liver of treated mice; type: in vivo; conditions: FIG. 9C
Excerpt: Collagen is the most abundant protein in not only the human body but also the extracellular matrix.

| C6 concentration in blood [1] | Structure (SMILES) | cell viability [2] | α-SMA expression (western blotting) [3] | extracellular matrix in fluorescent microscopic image (illuminated regions) (collagen I) |
| --- | --- | --- | --- | --- |
| about 1% | CCN(CC)c1ccc2cc(-c3nc4ccccc4s3)c(=O)oc2c1 [C6 alone, Coumarin 6] |  |  |  |
|  | CNC(=O)c1cc(Oc2ccc(NC(=O)Nc3ccc(Cl)c(C(F)(F)F)c3)cc2)ccn1 [free sorafenib, sorafenib] | about 75% | suppressed | not noteworthy |
